Reference: patent US20240148701A1, “WOULD HEALING METHODS” (The University of Sydney, priority 2021, published 2024)
“Also recorded” adds a separate entry of the source.

Assays:
β3-AR = β3-AR (Homo sapiens, UniProt P13945); conditions: cited from earlier work; for agonist activity at β3-AR: β1- and β2-AR antagonists; for affinity and potency at β3-AR: selective agonists
HUVECs [1] = assay: Tubule formation in HUVECs on reduced growth factor extracellular matrix; format: cell-based, human; conditions: L-NAME 300 μmol/L with CL 316,243
Description: (§1) Human umbilical vein endothelial cells (HUVECs; Lonza C2519AS, pooled source, Australia) were grown using standard cell culture conditions in endothelial cell growth medium (EGM Plus®, containing 2% fetal bovine serum, Lonza, Australia). All cells were regularly confirmed to be mycoplasma negative. Two different pooled source cell lines were used in experiments and all were used within passages 2-4. Human adult dermal microvascular endothelial cells were also obtained from Lonza (CC-2543, Lonza Australia) and cultured as above but using endothelial growth medium 2-MV bulletkit. Endothelial colony forming cells (ECFCs) were derived from the peripheral blood of participants in the BioHEART study. This registered study (ACTRN12618001322224) complies with the Declaration of Helsinki and the study protocol and design has been approved by the Northern Sydney Local Health District Human Research Ethics Committee (HREC/17/HAWKE/343). […]
(§2) Once they were ˜70% confluent, cells were re-suspended in diluted EGM Plus® (1:3) and plated on reduced-growth factor extracellular matrix (15 mg/ml, Cultrex, Trevigen, USA) at a density of 1.5×10^4 cells/cm^2. […] Cells were incubated in an EVOS FL Auto Imaging system for 16 hours and tubule formation recorded every hour. Optimal tube formation occurred at the 8-hour timepoint; tubule number at this point was quantified manually using NIH Image J software. […]

HUVECs [2] = assay: Cell migration by scratch assay in HUVECs (CL 316,243); format: cell-based, human; conditions: L-NAME 300 μmol/L with CL 316,243
C57BL6 mice = assay: Splinted wound healing model in STZ-diabetic male mice; format: in vivo, mouse
Description: 8-week-old C57BL6 mice were purchased from Animal Resources Centre (Murdoch, WA) and acclimatised to the Kearns Facility over a 1-week period. Mice were group housed (5/cage) within a Physical Containment Level 2 laboratory and were allowed food and water ad libitum. After acclimatisation, 60 mice were weighed daily and given five consecutive daily intraperitoneal injections of Streptozotocin (STZ) solution (55 mg/kg/day) dissolved in sodium citrate (0.1 M) using a standard insulin needle (30 gauge). After the final injection, mice were weighed and blood glucose level (BGL) measured weekly by pricking the most distal point on the tail with a needle to obtain a blood drop, used with an AccuCheck BGL monitor. Mice became become diabetic over 4 weeks post-STZ, as confirmed with a consistent BGL of 15 mmol/L and if greater than 10% weight loss was observed, insulin was delivered via intraperitoneal injection (1 IU in saline). 4 mice were excluded due to severe weight loss during diabetes induction that exceeded ethical protocols. […] Wounds were measured daily for 12 days by removing opsite covering and using digital callipers to measure wound diameter across 3 axes which were averaged and used to calculate circular wound area. […] As such, wound data from 2 mice in topical group were not recorded following day 8 due to splint detachment. […]

HUVECs [3] = assay: Scratch migration assay in HUVECs with Mirabegron; format: cell-based, human; conditions: 0.85-850 nM, over 15 hours, between concentrations
Description: (§3) For assessing the effect of Mirabegron on cell migration: Human umbilical vein endothelial cells (HUVECs; Lonza, C2519AS) were cultured in Endothelial Cell Growth Media containing 2% fetal bovine serum (EGM2) (Lonza, CC-3162) at standard conditions of 37° C. and 5% C02 (SC). Human dermal microvascular diabetic and non-diabetic endothelial cells (db-HMVECs and HMVECs: Lonza, CC2930 and CC2543 respectively) were cultured in Microvascular Endothelial Growth Media containing 2% fetal bovine serum (FBS) (EGM-2MV) (Lonza, CC-3202) at ST. Cells were between passage 4 and 7 when used.
To first investigate whether the role that β3AR activation plays in endothelial cell migration was dose dependant, the inventors measured migration of HUVECs in media with multiple concentrations of Mirabegron (0.85, 8.5, 85 & 850 nM) using a scratch migration assay.

diabetic HMVECs = assay: Scratch migration assay in diabetic HMVECs with Mirabegron; format: cell-based, human; conditions: 85 nM, 4.5 hours, vs control
Description: as §3
To investigate the potential for Mirabegron to improve migration by reversing oxidative stress, diabetic and non-diabetic HMVECs were used in a scratch migration assay. 85 nM of Mirabegron was used with a control on both cell types.

[4] = Topical lipogel on explanted skin, DESI-Mass spec detection; format: in vitro ADME, mouse; conditions: lipogel applied to freshly explanted skin for 5.5 hrs
Excerpt: A lipogel comprising the β3AR agonist Mirabegron was applied to freshly explanted skin for 5.5 hrs. Skin was then snap frozen in liquid nitrogen and cryosectioned at 40 μum thickness.
DESI-Mass spec was then used to scan the tissue at 30 μm resolution. Tissue image was constructed using mass signal 284 which was presented in high quantity throughout the tissue. Mirabegron was detected using mass signal 397 and overlayed onto the tissue image. The same slide used for DESI-Mass spec was subsequently stained with H&E.

[5] = tested on: human adult dermal microvascular endothelial cells (MVEC); assay: Tubule formation in human adult dermal microvascular endothelial cells; format: cell-based; conditions: β3AR antagonist 1 μmol/L with CL 316,243 100 ng/ml
Description: as §1, §2

β3-AR, sequence (P13945 whole entry): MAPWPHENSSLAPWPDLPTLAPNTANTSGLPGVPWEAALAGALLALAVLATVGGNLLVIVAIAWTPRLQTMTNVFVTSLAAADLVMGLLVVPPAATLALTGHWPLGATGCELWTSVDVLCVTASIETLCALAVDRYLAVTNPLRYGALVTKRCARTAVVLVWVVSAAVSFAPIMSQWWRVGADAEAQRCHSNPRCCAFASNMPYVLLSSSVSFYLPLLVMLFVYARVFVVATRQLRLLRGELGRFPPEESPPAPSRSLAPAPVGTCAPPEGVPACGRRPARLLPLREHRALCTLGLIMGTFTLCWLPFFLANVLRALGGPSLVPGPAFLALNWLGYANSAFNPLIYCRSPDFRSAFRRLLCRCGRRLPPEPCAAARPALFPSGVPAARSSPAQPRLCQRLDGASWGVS

Which “agonist activity at β3-AR” value (β3-AR) does the source give for `CC(C)(C)NCC(O)COc1cccc2[nH]c(=O)[nH]c12` (stereo not shown) [CGP12177A] here?
Its value is “partial agonist activity”.

With `COC(=O)[C@@H](N)CCCNC(=N)N[N+](=O)[O-]` [L-NAME, Nω-nitro-L-arginine methyl ester] as the molecule, how does the “effect on β3AR-stimulated tubule formation in HUVECs” value (HUVECs [1]) read?
Its value is “abolished”.

And the “effect on β3AR-stimulated cell migration rate in HUVECs” value (HUVECs [2])?
Its value is “abolished”.

For `Nc1nc(CC(=O)Nc2ccc(CCNC[C@H](O)c3ccccc3)cc2)cs1` [Mirabegron, 2-(2-Amino-1,3-thiazol-4-yl)-N-[4-(2-{[(2R)-2-hydroxy-2-phenylethyl]amino}ethyl)phenyl]acetamide], which “wound healing (wound closure over time)” value (C57BL6 mice; topical lipogel daily, 12 days, vs vehicle lipogel, p=0.009) is on record?
The value was “Significant improvement”.

What about the “wound healing at day 2” value (C57BL6 mice; topical, day 2, n=14, p=0.0238) of the same molecule?
Its value is “significant improvement”.

And the “migration of HUVECs” value (HUVECs [3])?
Its value is “No significant difference; also recorded: no impact”.

What about the “migration of diabetic HMVECs” value (diabetic HMVECs) of the same molecule?
Its value is “improved the migration; also recorded: seemed to improve the migration; also recorded: improves migration”.

What about the “affinity and potency at β3-AR” value (β3-AR) of the same molecule?
The value was “high affinity and potency”.

And the “absorption into skin tissue (DESI-Mass spec signal 397)” value [4]?
The value was “detected in the tissue; also recorded: deliver through to the dermis”.

For `CCc1ccccc1OC[C@@H](O)CN[C@H]1CCCc2ccccc21.O=C(O)C(=O)O` [SR 592230A], which “effect on CL 316,243-induced tubule formation” value [5] is on record?
Its value is “abolished”.

Which “agonist activity at β3-AR” value (β3-AR) does the source give for `CC(C)(Cc1c[nH]c2ccccc12)NCC(O)COc1ccccc1C#N` (stereo not shown) [bucindolol] here?
The value was “partial agonist activity”.

For `CC(C)(C)NCC(O)COc1cccc2c1CC(O)C(O)C2` (stereo not shown) [nadolol], which “affinity at β3-AR” value (β3-AR; β-AR antagonists) is on record?
Its value is “atypically low affinity”.

Which “agonist activity at β3-AR” value (β3-AR) does the source give for `CC(C)NCC(O)COc1cccc2[nH]ccc12` (stereo not shown) [pindolol] here?
The value was “partial agonist activity”.

Which “affinity and potency at β3-AR” value (β3-AR) does the source give for `Cc1cc(OCC(=O)O)c(C)cc1CCN[C@@H](C)[C@H](O)c1ccc(O)cc1` [ritobegron] here?
The value was “high affinity and potency”.

Which “affinity and potency at β3-AR” value (β3-AR) does the source give for `O=C(O)c1cccc(-c2cccc(NCCNC[C@H](O)c3cccc(Cl)c3)c2)c1` [solabegron] here?
Its value is “high affinity and potency”.

For `O=C(Nc1ccc(C[C@@H]2CC[C@H]([C@H](O)c3ccccc3)N2)cc1)[C@@H]1CCc2nccc(=O)n21` [vibegron], which “affinity and potency at β3-AR” value (β3-AR) is on record?
The value was “high affinity and potency”.
